The results in this text go back to ChEMBL document CHEMBL3046884, “Optical Resolution and Biological Activities of S-23121, a New Cereal Herbicide” (Agric Biol Chem, 1991).

The test system of this experiment is Cucumis sativus. Kind of experiment: Induction of membrane damage in Cucumis sativus (cucumber) cotyledon disks assessed as compound level causing […] ethane production incubated under white light for 24 hr at 20 degC. The format is functional.

As for `C#C[C@@H](C)Oc1cc(N2C(=O)C3=C(CCCC3)C2=O)c(F)cc1Cl`, the Activity worked out at 178 nM.
As for `C#C[C@H](C)Oc1cc(N2C(=O)C3=C(CCCC3)C2=O)c(F)cc1Cl` [(S)-S-23121], the Activity is listed as 21 nM.
